Entries after “also recorded” stand apart in the source; their conditions may differ.
How the values were obtained:
APOE4KI mice [1] = test: Cyclodextrin treatment of APOE4KI mice, TEM of corpus callosum (g-ratio); conditions: n=150 neurons, 2 g/kg subcutaneous twice a week for eight weeks, vs control mice
[2] = tested on: APOE4 iPSC-derived oligodendroglia; test: APOE oligodendroglia drug treatment, bodipy-cholesterol and bodipy lipid droplet staining; assay type: cell-based, human
Procedure: It was reasoned that inhibiting cholesterol biosynthesis and/or facilitating cholesterol transport in APOE4 oligodendrocytes may reduce intracellular accumulation and improve myelination.
Cells were plated onto a Millipore eight-chamber glass slide, at a density of 250,000 cells per well. Cells were then cultured in Neurobasal media, supplemented with PDGFR-α, NT3 and β-FGF. […] Cells were fixed with 4% PFA, and stained for Bodipy-cholesterol, WGA-555 and DAPI.

[3] = tested on: APOE4 oligodendroglia/iNeuron co-cultures; test: In vitro myelination assay, oligodendroglia/iNeuron co-cultures, MBP and neurofilament staining; assay type: cell-based, human; conditions: APOE4 co-cultures treated 6 weeks
Text: To further investigate the effect of APOE4 on myelination an in vitro model of myelination was developed that employs the genetically controlled isogenic APOE cells derived from CRISPR-edited iPSCs. To achieve this, iPSC-derived oligodendroglia were co-cultured with neurons induced from iPSCs using NGN2 overexpression (iNeurons) in a three-dimensional extracellular matrix that allows each cell type to interact with other cells and self-assemble into tissue-like structures (FIG. 10D). After 2 weeks in these 3D co-cultures, MBP-positive oligodendroglia spread across the culture and engage neurofilament-positive axons (FIG. 10E). After 6 weeks in culture, myelin-associated proteins 04 and Mbp encircled numerous neurofilaments, mimicking biological processes critical to myelination (FIG. 10E). […] Therefore, it was sought to use this in vitro myelination assay to assess the effect of APOE4 on myelin-associated phenotypes in human cells. Consequently, oligodendroglia/iNeuron co-cultures from two different APOE4/4 and APOE3/3 isogenic sets of iPSC-derived cells were established. […]
To determine whether cyclodextrin-induced cholesterol reduction in APOE4 oligodendroglia affected myelination, APOE4 oligodendroglia/iNeuron co-cultures were treated with cyclodextrin for 6 weeks and then assessed myelination phenotypes (FIG. 4C). […]

APOE4KI mice [4] = test: Cyclodextrin treatment of APOE4KI mice, brain immunohistochemistry (bodipy-cholesterol, Olig2, Mbp); assay type: in vivo, mouse; conditions: 2 g/kg subcutaneous twice a week for eight weeks, vs saline control
Procedure: It was next assessed whether cyclodextrin could reduce aberrant cholesterol accumulation in oligodendrocytes and promote increased myelination in APOE4KI mice in vivo. APOE4KI mice were treated with subcutaneous injections of cyclodextrin or saline (control) for eight weeks (n=5 control and 4 cyclodextrin treated mice). […] To more directly assess myelination in cyclodextrin treated APOE4 mice, TEM-based ultrastructural analysis was performed.
Animals were anaesthetized via exposure to gaseous isoflurane, and transcardially perfused with ice-cold PBS. The brains were dissected out, one hemisphere frozen in dry ice, and one hemisphere drop-fixed in 4% paraformaldehyde. The post-fixed hemisphere was sliced at a thickness of 40 μm using a Leica vibratome. Slices were blocked with a buffer containing 0.3% Triton-X and 10% normal donkey serum for two hours at room temperature, before being incubated with primary antibody overnight at 4° C. Slices were then washed with PBS and incubated with secondary antibody for two hours at room temperature, washed with PBS again, and mounted. Slides were imaged using a Zeiss LSM 880 microscope, and analyzed using the ImageJ “FIJI” or Imaris softwares. Human brain tissue slices were further incubated with TrueBlack for five minutes prior to mounting, to reduce auto-fluorescence.
(§1) APOE4KI female mice were injected subcutaneously with either 200 μL Cyclodextrin (2 g/kg) or 200 μL saline, twice a week for eight weeks.

APOE4KI mice [5] = test: Novel object recognition task; assay type: in vivo, mouse; conditions: female APOE4KI mice, control n=12, cyclodextrin n=14
Procedure: (§2) To investigate whether the increased myelination observed in cyclodextrin treated APOE4KI mice could promote functional improvements, the novel object recognition assay was performed to evaluate learning and memory (FIG. 4G)^57.
as §1
(§3) Mice were placed in an open field arena and allowed to move freely for ten minutes. The total distance moved and time mice spent in the center of the arena was tracked using the EthoVision XT software from Noldus. 24 hours later, mice were then placed into the same arena containing two objects and allowed to freely investigate both for a period of eight minutes. After an interval of four hours, mice were then placed back in the chamber with one novel object and one familiar object. The preference index was calculated by determining how much time an animal spent with its nose interacting with the novel object, divided by the total time an animal spent interacting with either object.

CYP46A1 = conditions: APOE4 oligodendroglia treated two weeks, vs untreated APOE4 controls
APOE4KI mice [6] = test: Open field task; assay type: in vivo, mouse; conditions: cyclodextrin-treated vs control APOE4KI mice
Procedure: as §2, §1, §3

iMGLs [7] = test: Whole-cell patch-clamp of iMGLs, ATP-evoked currents; assay type: cell-based, human; conditions: local application of 100 μM
iMGLs [8] = test: Calcium imaging of Fluo-4 AM labeled iMGLs with compound uncaging; assay type: cell-based, human; conditions: 1 mM Caged ATP, uncaging at 405 nm
APOE3 iMGLs [9] = test: qPCR of OA-treated iMGLs; assay type: cell-based, human; conditions: 20 μM, 16 hours
APOE3 iMGLs [10] = test: Calcium imaging upon ATP uncaging in OA-treated APOE3 iMGLs; assay type: cell-based, human; conditions: 20 μM, 16 hours, vs untreated APOE3 iMGLs
APOE3 iMGLs [11] = test: Lipid droplet induction in APOE3 iMGLs, BODIPY/IBA1 staining; assay type: cell-based, human; conditions: 20 μM, 16 hours
[12] = tested on: excitatory neurons generated by the rapid induction of NGN2 expression; test: MEA recording of NGN2-induced neurons treated with cholesterol; assay type: cell-based, human
Text: (§4) Cholesterol is essential for proper neuronal physiology, and cholesterol depletion is known to impair neurotransmission. Since we detect extracellular accumulation of cholesterol in APOE4 iMGLs, we wondered what the impact of exogenous cholesterol treatment would be to these neuronal cultures. Due to the extended culture times of spheroids, we opted to conduct these studies with excitatory neurons generated by the rapid induction of NGN2 expression. […] To further dissect the physiological process that renders neurons less excitable upon treatment with exogenous cholesterol, we next assessed iPSC-derived neurons by patch-clamp electrophysiology. […] Potentiation of Kir currents is aligned with our observation in cells recorded on MEA, as strong inwardly-rectifying potassium currents are known to hyperpolarize resting membrane potentials and decrease neuronal excitability.
Dissociated spheroids or NGN2-induced neurons were plated as a 10 μl droplet in Poly-D-Lysine (Sigma-Aldrich) coated wells of a CytoView MEA 48-well plate (Axion BioSystems; M768-tMEA-48B). […] Spontaneous neural activity was recorded for 30 minutes at a sampling rate of 12.5 kHz and an adaptive threshold set at 5.5 times the standard deviation of baseline noise was used for spike detection. […]

[13] = tested on: dissociated spheroid cultures; test: Patch-clamp electrophysiology of dissociated spheroid neurons with exogenous cholesterol; assay type: cell-based, human; conditions: 1 mM cholesterol in external solution
Text: as §4
Whole-cell patch-clamp recordings of neurons were performed at 6 to 8 weeks after spheroid dissociation and 2D plating, or for iMGLs after 2 to 4 weeks of iMGL differentiation. […] Membrane potentials were typically kept between −50 mV to −70 mV depending on whether neurons or iMGLs were being recorded. In voltage-clamp mode, currents were recorded with voltage steps ranging from −160 mV to +80 mV. […] ATP-evoked currents were recorded by local application of 100 μM (Sigma-Aldrich; #A9187). […]

forebrain spheroids = assay type: cell-based, human

## 2-hydroxypropyl-β-cyclodextrin
APOE4KI mice [1]
  g-ratio: significantly (p<0.0001) lower g-ratio; also recorded: decrease in g-ratio
[2]; APOE4 oligodendroglia treated two weeks (Atorvastatin 1 μM, Simvastatin 1 μM, Cyclodextrin 10 mM), compared with APOE3/3 oligodendroglia
  total bodipy-cholesterol staining: reduced bodipy-cholesterol staining that was not significantly different (p>0.9999) from that in APOE3 oligodendroglia
[2]; cyclodextrin-treated vs control APOE4 oligodendroglia
  neutral lipid droplets measured by bodipy staining: significant (p<0.0001) reduction
[2]; cyclodextrin-treated vs control APOE4 oligodendroglia, normalized to nuclei
  number of intracellular droplets of bodipy-cholesterol: significant (p=0.0092) reduction
[3]
  levels of MBP localization with neurofilament, comparison with APOE3 co-cultures: not significantly (p=0.0794) different from APOE3 co-cultures
[3]; untreated APOE4 18.89%, APOE3 62.42%, p=0.0274
  MBP staining localized along neurofilament staining: 43.44%+/−5.382
APOE4KI mice [4]
  Mbp staining: significantly (p=0.0008) increased Mbp staining; also recorded: overall increase in Mbp
  bodipy-cholesterol staining co-localizing within 1 μm of Mbp staining: significant (p=0.0423) increase; also recorded: increase in cholesterol-myelin colocalization
APOE4KI mice [4]; hippocampus
  bodipy-cholesterol staining accumulated around Olig2-positive nuclei: significantly (p=0.0038) reduced compared to control mice; also recorded: reduction of bodipy-cholesterol staining in cyclodextrin-treated mice
APOE4KI mice [5]
  preference for novel object: significantly (p=0.0466) increased preference for interacting with the novel object
CYP46A1
  expression of CYP46A1: significant (p=0.0011) upregulation
APOE4KI mice [6]; p=0.1275
  total distance moved: similar
APOE4KI mice [6]; p=0.1711
  velocity: similar
APOE4KI mice [6]; p=0.4478
  duration in the center of the cages: similar

## Nc1ncnc2c1ncn2[C@@H]1O[C@H](COP(=O)(O)OP(=O)(O)OP(=O)(O)O)[C@@H](O)[C@H]1O [ATP]
iMGLs [7]
  response to extracellular ATP, whole-cell patch-clamp: iMGLs sensed extracellular ATP
iMGLs [8]
  calcium transients upon ATP uncaging: robust increase in calcium transients

## CCCCCCCC/C=C\CCCCCCCC(=O)O [OA, oleic acid]
APOE3 iMGLs [9]
  CD74 expression by qPCR: upregulation of this gene
  expression of ACSL1: significantly induced the expression of ACSL1
APOE3 iMGLs [10]
  calcium transients evoked by ATP uncaging: sufficient to blunt calcium transients evoked by ATP uncaging relative to untreated APOE3 iMGLs
APOE3 iMGLs [11]
  cell size of iMGLs: decrease in the cell size of iMGLs
APOE3 iMGLs [11]; IBA1-positive cells
  intracellular BODIPY-positive lipid droplets: accumulated intracellular BODIPY-positive lipid droplets

## CC(C)CCC[C@@H](C)[C@H]1CC[C@H]2[C@@H]3CC=C4C[C@@H](O)CC[C@]4(C)[C@H]3CC[C@]12C [cholesterol]
[12]
  neuronal activity on MEA: phenocopied our observation of treatment with APOE4 iMGL conditioned media
[13]
  resting membrane potential (RMP): significantly hyperpolarized the resting membrane potential
[13]; vs non-treated neurons
  I-V curve, inwardly-rectifying potassium (Kir) currents: greater inwardly-rectifying potassium (Kir) currents

## NC1=N[C@H](O)[C@H]2[C@H]3O[C@]4(O)O[C@@H]([C@@H](O)[C@@]2(N1)[C@@H]4O)[C@]3(O)CO [tetrodotoxin]
Forebrain spheroids
  increase in iMGL calcium transients mediated by stimulated spheroid media: reduced to levels of non-stimulated spheroid media
